Literature values in publication PMC9297971 (Chembiochem, 2021).

Tested on: HIV-1
Conditions: read-out: IC50 of clinically used T20; ref 15b, 36

- IC50: 24 to 36 nM
Substance: Enfuvirtide [T20]
